The text below walks through data of patent US20130040882A1, “USE OF FIBROBLAST GROWTH FACTOR FRAGMENTS” (NOVARTIS AG, priority 2003, published 2013).

Entries after “also recorded” stand apart in the source; their conditions may differ.

The test system of test [1] is gene expression in organs. Briefly: Blind monkey trial of three peptides: gene expression profiling of organs on Affymetrix U95 chips. Format: in vivo, cynomolgus monkeys. To be noted: 100 μg/animal/day sc, two weeks.
Test [2] can be described thus: Blind monkey trial of three peptides: biochemistry, clinical chemistry screening and histopathology. Format: in vivo, cynomolgus monkeys. As to conditions: 100 μg/animal/day sc, two weeks. How it is done:
For the verification of the selected human proteins or peptides in cynomolgus monkeys, one control and four treated groups (i.e., each of three peptides and placebo) of two males and two females are treated for two weeks by daily administration of the proteins dissolved in autologous serum (e.g., in each animal's own serum) through the subcutaneous route. The administration of the peptides was blinded. The amount of peptide administered was 100 μg/animal/day (5-6 mg of peptide total).
Drug profiling in these non-human primates was analyzed using gene expression profiling of more than 100 organs on Affymetrix U95 chips (each containing ⅓ of the human genome). In addition, extensive biochemistry and clinical chemistry screening (>60 parameters) and histopathology (ca. 60 organs) were performed.

Consider “Peptide 2: gonadotrophin releasing hormone (QHWSYGLRPG; Gonadoliberin-1; UniProt P01148 24-33, looked up)”, for which, in test [1], the “Conclusions of the in vivo Profiling by the Data Mining Team: Function/Pathway” value is “Ovarian and testicular”; the “Findings by the Data Mining Team: Adrenals (gene with direction)” value was “Follistatin+; also recorded: IGF2+; also recorded: catecholamines synthesis+; also recorded: activin A−/inhibin+”; the “Findings by the Data Mining Team: Bone marrow (gene with direction)” value is given as “Macrophages+; also recorded: eosinophils+; also recorded: activin A−; also recorded: inhibin betaB+”; the “Findings by the Data Mining Team: Hypothalamus (gene with direction)” value is on record as “Transthyretin+; also recorded: oxytocin”. Also, in test [1], the “Findings by the Data Mining Team: Kidney (gene with direction)” value was “Thiol protease inhibitor (aldosterone + in biochemistry), and +GAPDH and +STAT and +JAK and +TEGT”; the “Findings by the Data Mining Team: Liver (gene with direction)” value is listed as “Activin A−; also recorded: inhibin betaB+; also recorded: lipid metabolism+; also recorded: glycolysis+; also recorded: follistatin+; also recorded: IDO1+; also recorded: VEGF−”; the “Findings by the Data Mining Team: Mammary gland” value was “Inconclusive; Sampling heterogenous”; the “Findings by the Data Mining Team: Ovary (gene with direction)” value is “Nuclear receptors−; also recorded: aromatase and estrogen synthase+; also recorded: activinA−; also recorded: inhibin beta B+”. Besides, in test [1], the “Findings by the Data Mining Team: Testis (gene with direction)” value is recorded as “CREM+”, the “Findings by the Data Mining Team: Thymus (gene with direction)” value is listed as “Integrin alpha6+; also recorded: VAP1+; also recorded: lipid metabolism; also recorded: binding protein+,” and the “Findings by the Data Mining Team: Thyroid (gene with direction)” value is given as “Ocludin+; also recorded: thyroid hormone binding protein+; also recorded: THR alpha−”. In test [2], the “Findings by the Data Mining Team: Biochemistry/Histopathology/Haematology (parameter with direction)” value is on record as “Slight increase in aldosterone”.
